{"source": "patent US12691116B2", "about": "“SETBP1 and XPO1 inhibitors for the treatment of sickle cell disease and β-thalassemia” (The Henry M. Jackson Foundation for the Advancement of …, priority 2019, dated 2026)", "key": {"[1]": {"tested_on": "SETBP1 interaction with XPO1", "settings": "cited from earlier work"}, "MEL cells [2]": {"tested_on": "MEL cells", "experiment": "Real-time RT-PCR of hemoglobin mRNA in MEL cells 48 hours after removal of compound (24 hours treatment)", "format": "cell-based, mouse", "settings": "treated 24 hours, examined 48 hours after removal", "experimental": "Real-time RT-PCR analysis of Hbb-bh1, Hbb-y, and Hbb-b1 mRNA levels in MEL cells 48 hours after removal of Compound (1AA) or KPT-185 from culture. The cells were first treated with Compound (1AA) or KPT-185 for 24 hours. Relative expression levels were calculated by normalizing to Rpl4 mRNA levels in the same sample and also to cells treated with DMSO.\nA further experiment examined whether continuous treatment of Compound (1AA) and KPT-185 as exemplary SETBP1 and XPO1 inhibitors, respectively, was required for activation of Hbb-bh1 and Hbb-y expression. MEL cells were treated with Compound (1AA) and KPT-185 for 24 hours and the Hbb-bh1 and Hbb-y mRNA levels were then examined at 48 hours after their removal."}, "human erythroid cells": {"tested_on": "human erythroid cells", "experiment": "Erythroid differentiation of human mobilized CD34+ cells, real-time RT-PCR of globin mRNA", "format": "cell-based", "settings": "human erythroid cells from CD34+ cells, treatment from day 5 of expansion, harvested day 10 of differentiation", "text": "Human CD34^+ cells mobilized by granulocyte-colony stimulating factor (G-CSF) were induced to undergo erythroid differentiation in culture. Treatment with Compound 1AA and 1BB at indicated concentrations or vehicles (DMSO or water) were started at day 5 of expansion condition. Erythroid cells were harvested at day 10 of differentiation condition for real-time RT-PCR analysis of human embryonic […] (FIG. 8A), fetal γ (FIG. 8B), and adult β (FIG. 8C) hemoglobin mRNA levels. Relative expression levels were calculated by normalizing to RPL4 mRNA levels in the same sample and also to cells treated with DMSO. (FIG. 8D) Representative bar graphs showing mRNA levels of human embryonic and fetal hemoglobin (γ+ε) as a percentage of total β-like globin (β+γ+ε) mRNA levels after treatment with Compound 1AA and 1BB versus DMSO. Note that a level of 20% or above for embryonic and fetal hemoglobin is considered curative for sickle cell disease. **, P<0.01; ***, P<0.001; ****P<0.0001 (two-tailed Student's t test).\n(§1) For studies using MEL cells, the cells were treated with selected inhibitors or vehicle in a culture medium (RPM 11640 medium with 10% fetal bovine serum) for 48 hours and were subsequently harvested for analysis of relative mRNA levels of Hbb-bh1, Hbb-y, and Hbb-b1 using real-time RT-PCR. For studies using primary human CD34+ hematopoietic stem and progenitor cells, the cells were treated with inhibitors or vehicle following or concurrent with induction of erythroid differentiation using an established two-phase culture protocol (Xu et al., Genes & Development 24(8): 783-798 (2010)). Relative mRNA levels of β-like globin genes in human cells after treatment were also analyzed using real-time RT-PCR.\nPrimary human mobilized CD34^+ cells were initially cultured in expansion medium containing StemSpan SFEM Medium (StemCell Technologies Inc.) with 1×CC100 cytokine mix (StemCell Technologies Inc.) and 2% Penicillin-Streptomycin (Life Technologies Inc.). Cells were maintained in this expansion medium at a density of 0.1-1×10^6 cells/mL for a total of six days with media changes every two days. On day 6, cells were transferred into differentiation medium containing StemSpan SFEM Medium with 2% Penicillin-Streptomycin, 20 ng/ml SCF (Biolegend), 1 U/ml EPO (Amgen), 5 ng/ml IL-3 (Biolegend), 2 μM dexamethasone (Sigma), and 1 μM β-estradiol (Sigma). Cells were maintained at a density of 0.1-1×10^6 cells/mL in differentiation medium for 10 days with media changes every two days. Drug treatments were started at day 5 of expansion condition and maintained thereafter. Fresh drugs were added at each medium change."}, "SETBP1": {"target": "SETBP1 (Homo sapiens, UniProt Q9Y6X0)", "sequence (Q9Y6X0 whole entry)": "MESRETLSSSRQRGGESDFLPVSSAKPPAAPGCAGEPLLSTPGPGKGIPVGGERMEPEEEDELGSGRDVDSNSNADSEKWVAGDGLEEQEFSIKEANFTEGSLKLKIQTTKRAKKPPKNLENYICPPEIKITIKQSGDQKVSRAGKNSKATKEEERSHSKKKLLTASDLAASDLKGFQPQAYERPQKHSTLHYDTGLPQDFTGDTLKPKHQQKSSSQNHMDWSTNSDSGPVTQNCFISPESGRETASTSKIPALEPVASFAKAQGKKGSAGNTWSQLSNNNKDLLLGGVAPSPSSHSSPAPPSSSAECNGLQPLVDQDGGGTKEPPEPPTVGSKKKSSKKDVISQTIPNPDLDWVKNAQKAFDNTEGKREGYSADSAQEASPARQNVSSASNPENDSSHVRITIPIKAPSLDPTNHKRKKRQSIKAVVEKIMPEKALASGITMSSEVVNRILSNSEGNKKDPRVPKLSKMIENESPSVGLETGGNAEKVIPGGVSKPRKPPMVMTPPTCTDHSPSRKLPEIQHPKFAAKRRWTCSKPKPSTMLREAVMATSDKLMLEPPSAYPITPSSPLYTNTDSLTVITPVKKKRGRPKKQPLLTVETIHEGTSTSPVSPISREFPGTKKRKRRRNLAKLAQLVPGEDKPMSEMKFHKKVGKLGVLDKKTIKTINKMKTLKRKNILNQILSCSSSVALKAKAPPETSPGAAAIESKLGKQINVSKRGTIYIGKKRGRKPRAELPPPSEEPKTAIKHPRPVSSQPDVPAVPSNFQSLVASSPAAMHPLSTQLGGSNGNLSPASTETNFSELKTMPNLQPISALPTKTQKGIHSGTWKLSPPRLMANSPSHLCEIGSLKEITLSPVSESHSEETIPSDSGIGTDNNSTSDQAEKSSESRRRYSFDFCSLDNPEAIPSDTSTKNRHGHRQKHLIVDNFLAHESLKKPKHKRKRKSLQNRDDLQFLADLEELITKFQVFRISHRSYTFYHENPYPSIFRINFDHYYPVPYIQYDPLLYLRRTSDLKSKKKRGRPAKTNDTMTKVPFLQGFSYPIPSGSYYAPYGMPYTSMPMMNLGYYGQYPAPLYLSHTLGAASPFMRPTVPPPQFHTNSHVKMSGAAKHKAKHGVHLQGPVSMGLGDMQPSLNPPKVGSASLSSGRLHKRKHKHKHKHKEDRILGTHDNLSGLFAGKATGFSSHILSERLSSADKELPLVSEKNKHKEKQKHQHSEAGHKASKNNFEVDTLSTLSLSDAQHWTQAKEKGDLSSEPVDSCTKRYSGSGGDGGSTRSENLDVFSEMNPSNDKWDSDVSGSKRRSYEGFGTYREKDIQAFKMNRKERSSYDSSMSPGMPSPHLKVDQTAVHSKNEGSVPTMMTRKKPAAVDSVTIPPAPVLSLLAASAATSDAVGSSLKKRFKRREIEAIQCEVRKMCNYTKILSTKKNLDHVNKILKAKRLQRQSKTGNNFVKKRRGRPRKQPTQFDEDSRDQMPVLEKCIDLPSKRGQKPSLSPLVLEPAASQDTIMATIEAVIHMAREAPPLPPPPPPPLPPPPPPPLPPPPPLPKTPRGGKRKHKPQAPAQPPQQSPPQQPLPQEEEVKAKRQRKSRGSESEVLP", "settings": "cited from earlier work"}, "MEL cells [3]": {"tested_on": "MEL cells", "experiment": "Real-time RT-PCR of Hbb-bh1, Hbb-y and Hbb-b1 mRNA in MEL cells after 48 hours of treatment", "format": "cell-based, mouse", "settings": "for increase in Hbb-bh1 (embryonic hemoglobin) mRNA level / increase in Hbb-y (fetal hemoglobin) mRNA level: 0.1 μM, 48 hours, relative to vehicle, normalized to Rpl4; for effect on Hbb-bh1 mRNA level (in words) / effect on Hbb-y mRNA level (in words): 48 hours of treatment at indicated concentration", "experimental": "Real-time RT-PCR analysis of Hbb-bh1, Hbb-y, and Hbb-b1 mRNA levels in MEL cells after 48 hours of treatment with compound 1AA at indicated concentration or with control DMSO. Relative expression levels were calculated by normalizing to Rpl4 mRNA levels in the same sample and also to cells […] with DMSO. […]\nRelative expression levels were calculated by normalizing to Rpl4 mRNA levels in the same sample and also to cells treated with DMSO.\nas §1"}}, "data": [{"smiles": "Cc1c2cc[n+](CCN3CCCCC3)cc2c(C)c2c1[nH]c1ccc(O)cc12.[Br-]", "note": "[Compound (1AA)]", "values": [{"measurement": "blocking of SETBP1 interaction with cofactor XPO1", "setting": "[1]", "result": "blocking"}, {"measurement": "Hbb-bh1 mRNA level after removal of compound", "setting": "MEL cells [2]", "result": "Significantly elevated levels"}, {"measurement": "Hbb-y mRNA level after removal of compound", "setting": "MEL cells [2]", "result": "Significantly elevated levels"}, {"measurement": "human embryonic hemoglobin mRNA level", "setting": "human erythroid cells", "result": "significantly increased"}, {"measurement": "human fetal γ hemoglobin mRNA level", "setting": "human erythroid cells", "result": "significantly increased"}, {"measurement": "inhibition of SETBP1 (transcriptional activity)", "setting": "SETBP1", "result": "inhibitor"}, {"measurement": "increase in Hbb-bh1 (embryonic hemoglobin) mRNA level", "setting": "MEL cells [3]", "result": "> 8", "unit": "fold"}, {"measurement": "increase in Hbb-y (fetal hemoglobin) mRNA level", "setting": "MEL cells [3]", "result": "> 8", "unit": "fold"}, {"measurement": "effect on adult hemoglobin Hbb-b1 mRNA level", "setting": "MEL cells [3]; 48 hours of treatment", "result": "only minor changes"}]}, {"smiles": "CCN(CC)CC[n+]1ccc2c(C)c3[nH]c4ccc(O)cc4c3c(C)c2c1.[Cl-]", "note": "[Compound (1BB)]", "values": [{"measurement": "human embryonic hemoglobin mRNA level", "setting": "human erythroid cells", "result": "significantly increased"}, {"measurement": "human fetal γ hemoglobin mRNA level", "setting": "human erythroid cells", "result": "significantly increased"}, {"measurement": "inhibition of SETBP1 (transcriptional activity)", "setting": "SETBP1", "result": "inhibitor"}, {"measurement": "effect on adult hemoglobin Hbb-b1 mRNA level", "setting": "MEL cells [3]; 48 hours of treatment", "result": "minor effects"}, {"measurement": "effect on Hbb-bh1 mRNA level (in words)", "setting": "MEL cells [3]", "result": "significantly increase"}, {"measurement": "effect on Hbb-y mRNA level (in words)", "setting": "MEL cells [3]", "result": "significantly increase"}]}, {"smiles": "COc1cc(-c2ncn(/C=C\\C(=O)OC(C)C)n2)cc(C(F)(F)F)c1", "note": "[KPT-185, reference compound]", "values": [{"measurement": "Hbb-bh1 mRNA level after removal of compound", "setting": "MEL cells [2]", "result": "Significantly elevated levels"}, {"measurement": "Hbb-y mRNA level after removal of compound", "setting": "MEL cells [2]", "result": "Significantly elevated levels"}, {"measurement": "increase in Hbb-bh1 (embryonic hemoglobin) mRNA level", "setting": "MEL cells [3]", "result": "over 60 fold"}, {"measurement": "increase in Hbb-y (fetal hemoglobin) mRNA level", "setting": "MEL cells [3]", "result": "over 14 fold"}, {"measurement": "Hbb-bh1 mRNA level compared to cells treated with hydroxyurea", "setting": "MEL cells [3]; 48 hours of treatment", "result": "~30", "unit": "fold"}]}, {"smiles": "O=C(/C=C\\n1cnc(-c2cc(C(F)(F)F)cc(C(F)(F)F)c2)n1)NNc1cnccn1", "note": "[KPT-330, reference compound]", "values": [{"measurement": "effect on Hbb-y mRNA level (in words)", "setting": "MEL cells [3]", "result": "significantly increase"}]}, {"smiles": "NC(=O)/C(=C/n1cnc(-c2cc(C(F)(F)F)cc(C(F)(F)F)c2)n1)c1cncnc1", "note": "[KPT-8602, reference compound]", "values": [{"measurement": "effect on Hbb-bh1 mRNA level (in words)", "setting": "MEL cells [3]", "result": "significantly increase"}, {"measurement": "effect on Hbb-y mRNA level (in words)", "setting": "MEL cells [3]", "result": "significantly increase"}]}]}
